Laboratory results published in patent publication US20220267347A1, “SUBSTITUTED PYRIMIDINEDIONE COMPOUNDS AND USES THEREOF” (SUNSHINE LAKE PHARMA CO., LTD., priority 2019, published 2022).

Key:
[1] = target: T1, humanized GnRH receptor (Homo sapiens, UniProt P30968); assay: Antagonism on humanized GnRH receptor transfected in RBL-1 cells, fluorescence detection of cytoplasmic calcium flow; assay type: cell-based; conditions: RBL-1 cells transfected with humanized GnRH receptor, 8 nM LH-RH
T1 construct: expressed in transfected cells; host or cells: RBL-1 cells (Rat Basophilic Leukemia)
T1 sequence (P30968 1-328): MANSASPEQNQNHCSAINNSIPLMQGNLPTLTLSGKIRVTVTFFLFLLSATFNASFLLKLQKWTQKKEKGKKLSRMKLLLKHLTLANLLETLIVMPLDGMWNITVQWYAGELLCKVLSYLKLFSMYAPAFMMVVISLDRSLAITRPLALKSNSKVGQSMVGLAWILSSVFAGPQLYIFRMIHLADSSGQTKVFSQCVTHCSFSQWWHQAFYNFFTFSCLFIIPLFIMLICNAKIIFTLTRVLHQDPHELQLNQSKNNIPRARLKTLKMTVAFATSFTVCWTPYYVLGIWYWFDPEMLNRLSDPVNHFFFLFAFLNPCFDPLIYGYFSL
Method: The antagonism of the compound on humanized GnRH receptor transfected in RBL-1 cells (Rat Basophilic Leukemia) was evaluated by a fluorescence method for detecting the cytoplasmic calcium flow.
The cells were suspended in HBSS buffer (Invitrogen, USA), 20 mM HEPES buffer (Invitrogen, USA) was added, and then the cells were added at an average density of 1.186×10^4 cells/well into a microwell reaction plate. Fluorescent probe (Fluo8 Direct, AAT Bioquest) was mixed with HBSS buffer (adding 20 mM HEPES buffer, pH=7.4), and the mixture was added into each well and the cells were incubated at 30° C. for 60 min. Then the reaction plate was placed in a microplate reader (FlipR Tetra, Molecular Device) for testing, the test compound or HBSS buffer (blank control) was added, after 5 min, 8 nM LH-RH was added, and the changes of the fluorescence intensity which is proportional to intracellular calcium ion concentration were measured. The fluorescence intensity of the blank control group without adding the compound was taken as 100% (inhibition rate was 0%), and the inhibition rate of the compound was calculated. The IC50 value was calculated by measuring the inhibition rate of the compound at different concentrations.

[2] = Pharmacokinetic evaluation after intravenous or gavage administration to rats; assay type: in vivo, SD rats; conditions: for AUC(0-inf) / AUC(0-t) / Cmax / MRT inf / Tmax / clearance / half-life: Sprague-Dawley (SD), rat, plasma
Method: (§1) The pharmacokinetics of the compound of the invention in rats and/or dogs were evaluated herein, the animal information was listed in Table B.
(§2) The compound of the present invention was administered to the animal subjects in the form of 10% DMSO+10% Kolliphor HS15+78% Saline+2% (2% HCl) solution or 78% Saline+2% (2% HCl)+20% PEG400 solution. Before administration, the animals were fasted for 12 hours but water was freely allowed. In the IV group, the dose was 1 mg/kg (Rats) or 0.5 mg/kg (dogs), blood samples were taken from vein at the following time points after administration (blood volume was about 0.2 mL): 0.083, 0.25, 0.5, 1.0, 2.0, 4.0, 6.0, 8.0 and 24 h (dogs) or 0.083, 0.25, 0.5, 1.0, 2.0, 5.0, 7.0 and 24 h (Rats), EDTA-K2 was pre-added to the blood vessels as an anticoagulant. In the gavage group, the dose was 5 mg/kg (Rats) or 2.5 mg/kg (dogs), blood samples were taken from vein at the following time points after administration (blood volume was about 0.2 mL): 0.25, 0.5, 1.0, 2.0, 4.0, 6.0, 8.0 and 24 h (dogs) or 0.25, 0.5, 1.0, 2.0, 5.0, 7.0 and 24 h (Rats), EDTA-K2 was pre-added to the blood vessels as an anticoagulant. The blood samples were centrifuged at […] for 2 minutes. The plasma was collected and kept at −20° C. or −70° C.
(§3) The above collected plasma samples were processed (after thawing of frozen plasma at room temperature, the thawed plasma was vortexed for 15 s; 10-20 μL of plasma was taken and 120-150 μL of acetonitrile solution containing internal standard was added to the plasma; the mixture was vortexed for 5 min amd centrifuged for 5 min at 4,000 rpm; 100 μL of supernatant was taken and 120-150 μL of methanol/water (v/v=1/1) was added to the suspernatant, and mixing), and then LC/MS/MS was used to analyze the concentration of the compound in plasma, and […] was used to calculate the pharmacokinetic parameters.

[3] = Pharmacokinetic evaluation after intravenous or gavage administration to dogs; assay type: in vivo, Beagle dogs; conditions: 2.5 mg/kg; for AUC(0-inf) / AUC(0-t) / Cmax / MRT inf / Tmax / half-life: beagle, dog, plasma, intravenous, i.v group; for F: gavage group
Method: as §1
as §2, with “In the gavage group, the dose was 5 mg/kg (Rats) or 2.5 mg/kg (dogs), blood samples were taken from vein at the following time points after administration (blood volume was about 0.2 mL): 0.25, 0.5, 1.0, 2.0, 4.0, 6.0, 8.0 and 24 h (dogs) or 0.25, 0.5, 1.0, 2.0, 5.0, 7.0 and 24 h (Rats), EDTA-K2 was pre-added to the blood vessels as an anticoagulant.” left out
as §3

Row | Structure (SMILES) | IC50 [1] | AUC(0-inf) ([2]; iv, i.v group, 1 mg/kg) | AUC(0-t) ([2]; iv, i.v group, 1 mg/kg) | Cmax ([2]; iv, i.v group, 1 mg/kg) | MRT inf ([2]; iv, i.v group, 1 mg/kg) | Tmax ([2]; iv, i.v group, 1 mg/kg) | clearance ([2]; iv, i.v group, 1 mg/kg) | half-life ([2]; iv, i.v group, 1 mg/kg) | AUC(0-inf) ([2]; po, i.g group, 5 mg/kg) | AUC(0-t) ([2]; po, i.g group, 5 mg/kg) | Cmax ([2]; po, i.g group, 5 mg/kg) | MRT inf ([2]; po, i.g group, 5 mg/kg) | Tmax ([2]; po, i.g group, 5 mg/kg) | half-life ([2]; po, i.g group, 5 mg/kg) | F ([2]; i.g group, 5 mg/kg) | AUC(0-inf) [3] | AUC(0-t) [3] | Cmax [3] | MRT inf [3] | Tmax [3] | also measured
1 | CONC(=O)Nc1ccc(-c2sc3c(c2CN(C)C)c(=O)n(-c2ccc(-n4nccn4)cn2)c(=O)n3Cc2c(F)cccc2F)cc1 [Example 2, 1-(4-(3-(5-(2H-1,2,3-triazol-2-yl)pyrid-2-yl)-1-(2,6-difluorobenzyl)-5-((dimethylamino)methyl)-2,4-dioxo-1,2,3,4-tetrahydrothieno[2,3-d]pyrimidin-6-yl)phenyl)-3-methoxyurea] | 3 nM | 266 ng·h/mL | 261 ng·h/mL | 352 ng/mL | 1.22 h | 0.083 h | 62.7 mL/min/kg | 1.33 h | 529 ng·h/mL | 519 ng·h/mL | 177 ng/mL | 2.48 h | 0.667 h | 1.91 h | 39.8% | 4290 ng·h/mL | 4130 ng·h/mL | 720 ng/mL | 5.59 h | 1.33 h | half-life [3]: 4.41 h; F [3]: 133%
2 | CONC(=O)Nc1ccc(-c2sc3c(c2CN(C)C)c(=O)n(-c2cccc(-n4cccn4)n2)c(=O)n3Cc2c(F)cccc2F)cc1 [Example 5, 1-(4-(3-(6-(1H-pyrazol-1-yl)pyrid-2-yl)-1-(2,6-difluorobenzyl)-5-((dimethylamino)methyl)-2,4-dioxo-1,2,3,4-tetrahydrothieno[2,3-d]pyrimidin-6-yl)phenyl)-3-methoxyurea] | 4.1 nM |  |  |  |  |  |  |  |  |  |  |  |  |  |  |  |  |  |  |  | 
3 | CONC(=O)Nc1ccc(-c2sc3c(c2CN(C)C)c(=O)n(-c2ccc(-n4cccn4)nn2)c(=O)n3Cc2c(F)cccc2F)cc1 [Example 12, 1-(4-(3-(6-(1H-pyrazol-1-yl)pyridazin-3-yl)-1-(2,6-difluorobenzyl)-5-((dimethylamino)methyl)-2,4-dioxo-1,2,3,4-tetrahydrothieno[2,3-d]pyrimidin-6-yl)phenyl)-3-methoxyurea] | 3.13 nM |  |  |  |  |  |  |  |  |  |  |  |  |  |  |  |  |  |  |  | 

Stronger by IC50 [1], values ahead:

Row | IC50 [1] | AUC(0-inf) ([2]; iv, i.v group, 1 mg/kg) | AUC(0-t) ([2]; iv, i.v group, 1 mg/kg) | Cmax ([2]; iv, i.v group, 1 mg/kg) | MRT inf ([2]; iv, i.v group, 1 mg/kg) | Tmax ([2]; iv, i.v group, 1 mg/kg) | clearance ([2]; iv, i.v group, 1 mg/kg) | half-life ([2]; iv, i.v group, 1 mg/kg) | AUC(0-inf) ([2]; po, i.g group, 5 mg/kg) | AUC(0-t) ([2]; po, i.g group, 5 mg/kg) | Cmax ([2]; po, i.g group, 5 mg/kg) | MRT inf ([2]; po, i.g group, 5 mg/kg) | Tmax ([2]; po, i.g group, 5 mg/kg) | half-life ([2]; po, i.g group, 5 mg/kg) | F ([2]; i.g group, 5 mg/kg) | AUC(0-inf) [3] | AUC(0-t) [3] | Cmax [3] | MRT inf [3] | Tmax [3] | Structure (SMILES) | also measured
4 | 1.82 nM | 184 ng·h/mL | 179 ng·h/mL | 151 ng/mL | 4.58 h | 0.083 h | 90.7 mL/min/kg | 2.13 h | 1750 ng·h/mL | 1710 ng·h/mL | 164 ng/mL | 6.4 h | 2.33 h | 4.43 h | 190.6% | 11800 ng·h/mL | 9490 ng·h/mL | 671 ng/mL | 13.2 h | 1.67 h | CONC(=O)Nc1ccc(-c2sc3c(c2CN(C)C)c(=O)n(-c2ccc(-n4cccn4)nc2)c(=O)n3Cc2c(F)cccc2F)cc1 [Example 3, 1-(4-(3-(6-(1H-pyrazol-1-yl)pyrid-3-yl)-1-(2,6-difluorobenzyl)-5-((dimethylamino)methyl)-2,4-dioxo-1,2,3,4-tetrahydrothieno[2,3-d]pyrimidin-6-yl)phenyl)-3-methoxyurea] | half-life [3]: 9.44 h; F [3]: 140.3%
5 | 2.22 nM |  |  |  |  |  |  |  |  |  |  |  |  |  |  |  |  |  |  |  | CONC(=O)Nc1ccc(-c2sc3c(c2CN(C)C)c(=O)n(-c2ccc(-n4nccn4)nc2)c(=O)n3Cc2c(F)cccc2F)cc1 [Example 4, 1-(4-(3-(6-(2H-1,2,3-triazol-2-yl)pyrid-3-yl)-1-(2,6-difluorobenzyl)-5-((dimethylamino)methyl)-2,4-dioxo-1,2,3,4-tetrahydrothieno[2,3-d]pyrimidin-6-yl)phenyl)-3-methoxyurea] | 
